Laboratory results taken from US6919377B2, “Cyclohexylamine derivative as subtype selective NMDA receptor antagonists” (Warner Lambert Company LLC, priority 2000, dated 2005).
pIC50: −log10 of the molar value.

What was measured:
NR1a/NR2B = NR1a/NR2B (Rattus norvegicus, UniProt P35439+Q00960); assay: Electrophysiological assay at NMDA receptor subunits expressed in Xenopus oocytes (two-electrode voltage clamp); format: cell-based; conditions: Table 4; cloned rat NMDA receptor subunits in Xenopus oocytes; read-out: NR1a/NR2B Oocyte IC50
Method: The clones were transformed into appropriate host bacteria and plasmid preparations were made with conventional DNA purification techniques. A sample of each clone was linearized by restriction enzyme digestion […] was synthesized with T3 RNA polymerase. The cRNA was diluted to 400 ng/μL and stored in 1 μL aliquots at −80° C. until injection.
The Xenopus Oocyte Expression System. […] Follicle-enclosed oocytes were micro-injected with 1:1 mixtures of NR1A:NR2A, 2B or 2C.; injecting 1 to 10 ng of RNA encoding each receptor subunit. NR1A encoding RNA was injected alone at ˜20 ng. Oocytes were stored in Barth's medium containing (in mM): NaCl, 88; KCl, 1; CaCl2, 0.41; Ca (NO3)2, 0.33; MgSO4, 0.82; NaHCO3, 2.4; HEPES 5, pH 7.4, with 0.11 mg/ml gentamicin sulphate. While oocytes were still surrounded by enveloping ovarian tissues, the Barth's medium was supplemented with 0.1% bovine serum.
Drugs were applied by bath perfusion. Using oocytes expressing different subunit combinations of NMDA receptor, NMDA currents were activated by co-application of glutamate (100 μM) and glycine (1-100 μM). Inhibitory potency of the novel antagonists was assessed on responses elicited by fixed concentrations of glutamate and glycine, by measuring reductions in current induced by progressively increasing concentrations of antagonist.
Concentration-inhibition curves were fit with Equation 1. […] For incomplete curves analysis by fitting was unreliable and IC50 values were calculated by simple regression over linear portions of the curves (Origin: Microcal Software).

Alpha 1 = Alpha 1 (Table 4, no method given); format: binding; conditions: read-out: Alpha 1 cocn IC50
D2 = D2 (Homo sapiens, UniProt P14416); assay: D2 Raclopride (Table 4, no method given); format: binding
Chain of D2 (P14416 whole entry): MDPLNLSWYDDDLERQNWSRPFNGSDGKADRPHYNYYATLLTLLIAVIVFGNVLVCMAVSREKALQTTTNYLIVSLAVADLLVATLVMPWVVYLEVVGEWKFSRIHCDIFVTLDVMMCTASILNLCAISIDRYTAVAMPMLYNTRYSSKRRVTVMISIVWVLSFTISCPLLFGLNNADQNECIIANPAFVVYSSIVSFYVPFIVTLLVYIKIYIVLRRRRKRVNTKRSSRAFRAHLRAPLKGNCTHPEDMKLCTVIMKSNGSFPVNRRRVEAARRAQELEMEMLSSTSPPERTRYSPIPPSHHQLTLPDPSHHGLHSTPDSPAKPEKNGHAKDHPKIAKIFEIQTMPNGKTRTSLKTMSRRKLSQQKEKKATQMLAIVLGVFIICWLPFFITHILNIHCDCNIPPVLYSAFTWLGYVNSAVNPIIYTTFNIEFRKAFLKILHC

Chain of NR1a/NR2B (Q00960 27-1482, other chains not shown): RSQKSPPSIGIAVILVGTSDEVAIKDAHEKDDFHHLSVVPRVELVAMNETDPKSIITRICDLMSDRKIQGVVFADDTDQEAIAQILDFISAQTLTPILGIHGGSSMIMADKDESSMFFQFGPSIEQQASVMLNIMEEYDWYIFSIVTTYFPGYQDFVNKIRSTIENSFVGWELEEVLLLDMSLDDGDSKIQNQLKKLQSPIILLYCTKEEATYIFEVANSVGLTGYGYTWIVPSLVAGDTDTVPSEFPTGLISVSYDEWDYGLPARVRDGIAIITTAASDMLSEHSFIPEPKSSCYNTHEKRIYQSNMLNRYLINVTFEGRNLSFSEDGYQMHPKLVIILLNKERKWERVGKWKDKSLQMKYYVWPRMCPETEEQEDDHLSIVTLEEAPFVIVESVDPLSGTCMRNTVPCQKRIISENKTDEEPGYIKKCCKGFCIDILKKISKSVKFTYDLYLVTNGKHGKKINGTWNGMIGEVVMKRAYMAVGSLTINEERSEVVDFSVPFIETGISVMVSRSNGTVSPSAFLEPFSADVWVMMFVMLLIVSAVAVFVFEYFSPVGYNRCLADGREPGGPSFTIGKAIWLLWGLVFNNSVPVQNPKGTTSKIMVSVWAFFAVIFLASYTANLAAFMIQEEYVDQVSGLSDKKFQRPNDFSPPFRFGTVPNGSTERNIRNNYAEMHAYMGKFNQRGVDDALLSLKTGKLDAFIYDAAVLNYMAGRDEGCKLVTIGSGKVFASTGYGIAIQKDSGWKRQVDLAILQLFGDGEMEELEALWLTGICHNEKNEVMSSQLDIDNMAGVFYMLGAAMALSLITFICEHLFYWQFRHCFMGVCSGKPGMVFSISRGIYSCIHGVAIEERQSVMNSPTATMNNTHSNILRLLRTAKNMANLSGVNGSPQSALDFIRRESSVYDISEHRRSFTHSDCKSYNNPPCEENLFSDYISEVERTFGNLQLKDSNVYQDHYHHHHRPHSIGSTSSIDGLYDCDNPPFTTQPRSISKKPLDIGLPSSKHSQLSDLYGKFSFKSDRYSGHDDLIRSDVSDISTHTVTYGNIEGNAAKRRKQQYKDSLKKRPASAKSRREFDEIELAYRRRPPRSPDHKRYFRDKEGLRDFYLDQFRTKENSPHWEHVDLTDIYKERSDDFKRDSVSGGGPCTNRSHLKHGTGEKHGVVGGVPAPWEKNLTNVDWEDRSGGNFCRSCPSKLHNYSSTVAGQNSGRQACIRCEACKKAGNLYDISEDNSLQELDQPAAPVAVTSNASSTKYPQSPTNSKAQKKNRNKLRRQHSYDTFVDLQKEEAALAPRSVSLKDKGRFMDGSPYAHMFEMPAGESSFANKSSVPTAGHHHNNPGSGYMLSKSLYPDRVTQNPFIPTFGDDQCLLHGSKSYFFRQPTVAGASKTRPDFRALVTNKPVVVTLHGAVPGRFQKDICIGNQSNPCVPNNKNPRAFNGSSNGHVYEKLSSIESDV

SMILES	pIC50 (NR1a/NR2B)	pIC50 (Alpha 1)	pIC50 (D2)
COc1ccc(CCCN[C@H]2CC[C@H](c3ccc(O)cc3)CC2)cc1 [Example 28, Trans-4-{4-[3-(4-methoxyphenyl)propylamino]cyclohexyl}phenol]	7.15	5.64	5.53
Oc1ccc([C@H]2CC[C@@H](NCCc3ccc(F)cc3)CC2)cc1 [Example 5a, cis-4-{4-[2-(4-Fluorophenyl)ethylamino]cyclohexyl}phenol]	5.92	5.00	5.57
COc1ccc(CCN[C@H]2CC[C@@H](c3ccc(O)cc3)CC2)cc1 [Example 8a, cis-4-{4-[2-(4-Methoxyphenyl)ethylamino]cyclohexyl}phenol]	5.62	5.04	5.30
COc1ccc(CCN[C@H]2CC[C@H](c3ccc(O)cc3)CC2)cc1 [Example 8b, trans-4-{4-[2-(4-Methoxyphenyl)ethylamino]cyclohexyl}phenol]	6.62	5.29	5.72
